According to paper PMC5454942, “The Potential of Triterpenoids from Loquat Leaves (Eriobotrya japonica) for Prevention and Treatment of Skin Disorder” (International Journal of Molecular Sciences, 2017):
In brackets after ≈: the same amount, converted by molar mass. Several values for one entry are separate records, joined by “and”; a condition that tells them apart may be missing. Identical values can stand only once. Like-named read-outs stand apart in the source and are kept apart here.

What was measured:
Propionibacterium acnes = experiment: Anti-bacterial assay (growth inhibition, MIC/MBC by broth microdilution); type: cell-based; settings: for activity against P. acnes (in words): at their maximum solubility
Experimental: The antibacterial assay was based mostly on the methods described by Tanaka et al. with slight modification. Propionibacterium acne (NBRC 107605) was used for the antibacterial assay. A single colony of the test strain was taken and 5 mL of Gifu anaerobic medium (GAM) broth (Nissui, Tokyo) was added to it. This culture was incubated at 37 °C for 30 h. It was then added to the bacterial suspension to prepare a bacterial concentration at 10^5 CFU/mL. The bacterial solution was used for the subsequent antibacterial assay. Each compound was dissolved in DMSO, and benzalkonium chloride (Wako) was used as a positive control. The plate was incubated at 37 °C for 30 h. Finally, bacterial growth was measured by a microplate reader at 630 nm. The MIC and MBC were evaluated by the standard broth microdilution method.

RBL-2H3 cells [1] = experiment: β-hexosaminidase release from IgE-stimulated RBL-2H3 mast cells; type: cell-based, rat; settings: Rattus norvegicus, RBL-2H3
Experimental: (§1) The anti-allergy assay was based mostly on the methods described by Zhu et al. and Yun et al. with slight modification. Rat basophilic leukemia (RBL-2H3) cells were obtained from the Riken Bio-resource Center Cell Bank (Tsukuba, Japan). RBL-2H3 cells were incubated in EMEM medium containing 10% FBS and 1% antibiotics–antimycotics at 37 °C. The cells were seeded on a 96-well plate (2 × 10^5 cells/well). After 24 h of incubation, the medium was supplemented with 0.5 μg/mL anti-DNP (dinitrophenol) mouse immunoglobulin E (IgE) (Sigma-Aldrich). After an additional 24 h of incubation, the medium was replaced with 100 μL of Tyrode buffer. The sample dissolved in DMSO (<0.5% per well) was added, and the cell plate was incubated again for 30 min, then replaced with 100 μL of tyrode buffer containing 50 μg/mL DNP-bovine serum albumin (BSA) (Invitrogen, Carlsbad, CA, USA). After 1 h of incubation, 50 μL of the supernatant was collected from each well and mixed with 50 μL of substrate solution (p-nitrophenyl-N-acetyl-β-glucosaminide, 2 mM; Sigma-Aldrich) in a new 96-well plate. The mixture was incubated at room temperature on a shaker for 3 h. Finally, 100 μL of stop solution was added, and the absorbance was read at 405 nm. A parallel MTT experiment was performed to measure the cell viability. The MTT experiment was done exactly as described.

[2] = Cell viability of RBL-2H3 cells (parallel MTT); type: cell-based, rat; settings: rat
Experimental: as §1

[3] = Cell viability of B16 melanoma cells (MTT); settings: mouse
Experimental: (§2) This assay was performed as described by Arung et al.. The mouse melanoma cell line B16 was obtained from the Riken Bioresource Center Cell Bank (Tsukuba, Japan). The B16 melanoma cells were maintained in Eagle’s Minimal Essential Medium (EMEM, Nissui Chemical, Tokyo) supplemented with 10% (v/v) fetal bovine serum (FBS; Gibco, Carlsbad, CA, USA) and 0.09 mg/mL theophylline (Sigma-Aldrich, St. Louis, MO, USA). […] After 24 h, test samples were dissolved in DMSO (<0.2% per well) and sample solution were added to each well. Arbutin (Tokyo Kasei Kogyo, Tokyo) was used as a positive control. The cells were incubated for an additional 48 h, and then the medium was replaced with fresh medium containing each sample again. After 24 h, the melanin content and the cell viability were measured using a microplate reader (BioTek-ELX800, BioTek Instruments, Winooski, VT, USA) at 405 nm and 570 nm, respectively. Cell viability was measured using the MTT (3-(4,5-dimethylthiazol-2-yl)-2,5-diphenyltetrazolium bromide) method.

B16 melanoma cells [4] = experiment: Cell viability of B16 melanoma cells (MTT); settings: for Inhibition rate (100% − cell viability): B16 cells
Experimental: as §2

B16 melanoma cells [5] = experiment: Anti-melanogenesis assay (melanin content); type: cell-based, mouse
Experimental: as §2

NHDF cells = experiment: Skin type I collagen synthesis promoting assay (ELISA, with MTT); type: cell-based, human; settings: 5 μg/mL, fold of control
Experimental: The assay for measuring the promotion of skin collagen synthesis was described by Kishikawa et al.. Adult NHDF cells (Lonza, Tokyo) were routinely maintained in 10% FBS and 1% antibiotic-antimycotic (Invitrogen) in Dulbecco’s modified Eagle’s medium (DMEM, Wako). After growing to confluence, cells at a density of 5 × 10^3 cells/well were seeded on 96-well plates for 24 h before the treatment. The medium was replaced with a mixture of 1 μL of sample solution (DMSO < 0.5% per well) and 99 μL of DMEM supplemented with 0.5% FBS. After 72 h of cultivation, the amount of collagen in the medium was measured using a human type I collagen enzyme-linked immunosorbent assay (ELISA) kit (ACEL, Kanagawa, Japan). The amount of collagen production was calculated using a standard curve prepared by measurement by the same ELISA. The cells remaining in the 96-well plate were subjected to an MTT assay. Ascorbic acid (100 μM, Wako) was used as a positive control.

RBL-2H3 cells [6] = experiment: Cell viability of RBL-2H3 cells (parallel MTT); type: cell-based, rat; settings: 25 μg/ml, RBL-2H3 cells
Experimental: as §1

[7] = Mus musculus, B16 melanoma cells, read-out: IC50 melanin
[8] = Mus musculus, B16, read-out: Inhibition rate (100% − melanin synthesis)

SMILES: C[C@H]1[C@H](C)CC[C@]2(CO)CC[C@]3(C)C(=CC[C@@H]4[C@@]5(C)CC[C@H](O)C(C)(C)[C@@H]5CC[C@]43C)[C@H]12 [Compound 3, Uvaol]
- inhibition at 50 µg/mL (Propionibacterium acnes; Cutibacterium acnes, concentration 50 μg/mL, read-out: Inhibition Rate (P. acnes growth)): < 0%
- inhibition at 25 µg/mL (RBL-2H3 cells [1]; 25 μg/mL, read-out: Inhibition Rate (β-hexosaminidase release)): 29.9 ± 3.3%
- viability at 25 μg/ml ([2]; 25 μg/ml, RBL-2H3 cells, read-out: Cell viability): 110 ± 10.2%
- CC50 at 72 h ([3]; B16 melanoma cells): > 45.2 µM
- Inhibition rate (100% − cell viability) (B16 melanoma cells [4]; 5 μg/ml): 4.0 ± 7.6%
- Inhibition rate (100% − cell viability) (B16 melanoma cells [4]; 10 μg/ml): 10.8 ± 6.8%
- Inhibition rate (100% − cell viability) (B16 melanoma cells [4]; 20 μg/ml): 6.5± 7.4%
- inhibition at 5 µg/mL (B16 melanoma cells [5]; Mus musculus, 5 μg/ml, B16 cells, read-out: Inhibition rate (100% − melanin synthesis)): 0%
- inhibition at 10 µg/mL (B16 melanoma cells [5]; Mus musculus, 10 μg/ml, B16 cells, read-out: Inhibition rate (100% − melanin synthesis)): 14.2 ± 2.6%
- inhibition at 20 µg/mL (B16 melanoma cells [5]; Mus musculus, 20 μg/ml, B16 cells, read-out: Inhibition rate (100% − melanin synthesis)): 14.6 ± 4.6%
- IC50 (B16 melanoma cells [5]; Mus musculus, B16 melanoma cells, read-out: IC50 (melanin synthesis)): > 45.2 µM
- IC50 (B16 melanoma cells [5]; [7]): > 20 µg/mL

SMILES: C[C@@H]1CC[C@]2(C(=O)O)CC[C@]3(C)C(=CC[C@@H]4[C@@]5(C)C[C@@H](O)[C@H](O)C(C)(C)[C@@H]5CC[C@]43C)[C@@H]2[C@]1(C)O [Compound 11, tormentic acid]
- CP/CV value (collagen production %/cell viability %) (NHDF cells): 1.3
- MBC (Propionibacterium acnes; P. acnes, broth microdilution): 200 µg/mL (≈ 409 µM)
- MIC (Propionibacterium acnes; P. acnes, broth microdilution): 100 µg/mL (≈ 205 µM)
- activity against P. acnes (in words) (Propionibacterium acnes): active
- Inhibition Rate (P. acnes growth) (Propionibacterium acnes; concentration 100 μg/mL): 102.8 ± 2.1%
- Cell viability (RBL-2H3 cells [6]): 62.6 ± 1.1%
- Inhibition rate (100% − cell viability) (B16 melanoma cells [4]; 1 μg/ml): 12.0 ± 12.8%
- Inhibition rate (100% − cell viability) (B16 melanoma cells [4]; 2.5 μg/ml): 13.7 ± 10.7%
- Inhibition rate (100% − cell viability) (B16 melanoma cells [4]; 5 μg/ml): 8.7 ± 12.1%
- Inhibition rate (100% − cell viability) (B16 melanoma cells [4]; 10 μg/ml): 52.4 ± 8.6%
- Inhibition rate (100% − cell viability) (B16 melanoma cells [4]; 20 μg/ml): 85.8 ± 1.6%
- CC50 cell viability (B16 melanoma cells [4]; B16 melanoma cells, MTT): 11.4 µg/mL (≈ 23.3 µM)
- CC50 (B16 melanoma cells [4]; read-out: CC50 (cell viability), B16 melanoma cells, MTT): 23.3 µM
- Inhibition rate (100% − melanin synthesis) (B16 melanoma cells [5]; 1 μg/ml, B16 cells): 0.0± 6.1%
- Inhibition rate (100% − melanin synthesis) (B16 melanoma cells [5]; 2.5 μg/ml, B16 cells): 11.3 ± 3.4%
- Inhibition rate (100% − melanin synthesis) (B16 melanoma cells [5]; 5 μg/ml, B16 cells): 34.8 ± 4.5%
- Inhibition rate (100% − melanin synthesis) (B16 melanoma cells [5]; 10 μg/ml, B16 cells): 51.3 ± 0.9%
- Inhibition rate (100% − melanin synthesis) (B16 melanoma cells [5]; 20 μg/ml, B16 cells): 73.4 ± 8.0%
- IC50 melanin (B16 melanoma cells [5]; B16 melanoma cells): 9.0 µg/mL (≈ 18.4 µM)
- IC50 (B16 melanoma cells [5]; B16 melanoma cells, read-out: IC50 (melanin synthesis)): 18.5 µM

SMILES: CC1CCC2(C(=O)O)CCC3(C)C(=CCC4C5(C)C(CO)=CC(C)(C)C5CCC43C)C2C1(C)O (centres unmarked) [Compound 16, hyptadienic acid]
- MBC (Propionibacterium acnes; Cutibacterium acnes): 200 µg/mL (≈ 425 µM)
- MIC (Propionibacterium acnes; Cutibacterium acnes): 100 µg/mL (≈ 212 µM)
- inhibition at 100 µg/mL (Propionibacterium acnes; Cutibacterium acnes, read-out: Inhibition Rate (P. acnes growth)): 104 ± 3.1%
- activity against P. acnes (in words) (Propionibacterium acnes): active
- viability at 25 μg/ml [2]: 99.9 ± 2.3%
- CC50 at 72 h [3]: 7.8 µg/mL and 16.5 µM
- Inhibition rate (100% − cell viability) (B16 melanoma cells [4]; 1 μg/ml): 3.7 ± 3.8%
- Inhibition rate (100% − cell viability) (B16 melanoma cells [4]; 2.5 μg/ml): 14.7 ± 4.2%
- Inhibition rate (100% − cell viability) (B16 melanoma cells [4]; 5 μg/ml): 28.9 ± 3.2%
- Inhibition rate (100% − cell viability) (B16 melanoma cells [4]; 10 μg/ml): 60.3 ± 6.5%
- S.I (selectivity index, CC50 value/IC50 value) (B16 melanoma cells [5]; B16 melanoma cells): 0.8
- IC50 (B16 melanoma cells [5]; Mus musculus, B16, read-out: IC50 (melanin synthesis)): 21.6 µM
- inhibition at 1 µg/mL (B16 melanoma cells [5]; [8]): 0.1 ± 4.5%
- inhibition at 2.5 µg/mL (B16 melanoma cells [5]; [8]): 1.9 ± 3.4%
- inhibition at 5 µg/mL (B16 melanoma cells [5]; [8]): 13.4 ± 5.5%
- inhibition at 10 µg/mL (B16 melanoma cells [5]; [8]): 51.8 ± 5%
- IC50 (B16 melanoma cells [5]; [7]): 10.1 µg/mL

SMILES: O=c1c(O)c(-c2ccc(O)c(O)c2)oc2cc(O)cc(O)c12 [Quercetin, reference compound]
- inhibition at 82 µM (RBL-2H3 cells [1]; 82 μM, positive control, read-out: inhibition rate of β-hexosaminidase release): 72.5%
